For this experiment, the system named is beta-TC6 cells. Nature of the experiment: Insulin HTRF assay, relative activity Ar normalized to sunitinib. Conditions: Mus musculus, normalized to positive control sunitinib (5 µM = 100%), Table 10. It counts as cell-based. The source says: For further screening of compounds derived from compounds described above for their ability to regulate insulin release an insulin HTRF® (Homogeneous Time-Resolved Fluorescence; Cisbio International, France) was used. This assay is based on two antibodies against insulin binding to different epitopes of insulin. One of these antibodies is coupled to Europium (Ab-Eu-Cryptate) and the other one to the fluorophore XL665 (Ab-XL665). Is insulin secreted into the supernatant of cell culture both antibodies can bind to insulin and come therefore into close proximity which allows upon excitation that energy transfer between (FRET) the long-life fluorescent donor Europium (cryptate) and the acceptors XL665. FRET increases proportionally with insulin concentration.
The automated assay protocol is as follows: • On day 1 15k beta-TC6 cells per well were seeded for 24 or 48 h in 50 µl complete medium. On day 2 or respective on day 3 the medium is removed and cells are washed with 60 µl 1xPBS and 20 µl induction buffer is added using BioTek washer. Subsequently, 10 µl Sunitininb (5 µM f.c.) or the test compound in induction buffer; 0.5% f.c. DMSO (CyBi-well) is transferred to the cells. The cells are then incubated at 37°C for 2, 3, 4h.
The HTRF assay is carried out using Greiner 384-well 784075 assay plates. First 10 µl supernatant is transferred from the cell plates in HTRF plates (CyBi-well). 10 µl of 0, 1, 2, and 4 ng/ml Insulin standard controls in assay medium is used as a control. To each well 10 µl of combined 1:25 Ab-XL665 (Acc) and 1:20 Ab-Eu-Cryptate (WellMate) are added and incubated for 120 min at RT in the dark. Finally HTRF is measured on ViewLux ultra high throughput microplate imager (PerkinElmer).
The evaluation software DataFactoty derives relative activities Ar according to the following equation: Ar = (V-R(0%control))/(R(100%control) -R(0%control)) × 100 [formula] […]
The activity of the compounds was classified according to their Ar (relative activity) into the following ranges: Ar ≥ 100% + + + +; 50% ≤ Ar < 100% + + +; 20% ≤ Ar < 50% + +; 10% < Ar < 20% + [formula] Table 10. Ar (relative activity) values of inventive compounds
A general note: Time-resolved FRET reads energy transfer from a long-lived donor to a nearby acceptor.
Broadly, the Emax is the greatest response seen or fitted, relative to the assay's reference. In the case of `Nc1cccc(-c2ccc3ncc(-c4cccc(Cl)c4)n3n2)c1` [compound 123, 3-[3-(3-chlorophenyl)imidazo[1,2-b]pyridazin-6-yl]an iline], the Emax lay within 20 to 50%. The result for `CC(=O)c1cccc(-c2cnc3ccc(-c4ccc(N)nc4)nn23)c1` [compound 153, 1-[3-[6-(6-amino-3-pyridyl)imidazo[1,2-b]pyridazin-3-yl]phenyl]ethanone] reads 20 to 50%; that for `Cn1ccc2cc(-c3cn4c(-c5ccc6ncccc6c5)cnc4cn3)ccc21` [compound 443, 6-[6-(1-methylindol-5-yl)imidazo[1,2-a]pyrazin-3-yl]quinoline], at least 100%.

`CCOc1cccc(-c2cn3c(-c4cccc(CO)c4)cnc3cn2)c1` [compound 378, [3-[6-(3-ethoxyphenyl)imidazo[1,2-a]pyrazin-3-yl]phenyl]methanol]: the Emax fell in the range of 20 to 50%.

In turn, `CSc1ccc(-c2cnc3cccnn23)cc1` [compound 72, 3-(4-methylsulfanylphenyl)imidazo[1,2-b]pyridazine] had an Emax of 10 to 20%. The value for `CC(=O)Nc1ccc(-c2ccc3nnc(-c4cccc(Cl)c4)n3c2)cc1` [compound 202, N-[4-[3-(3-chlorophenyl)-[1,2,4]triazolo[4,3-a]pyridin-6-yl]phenyl]acetamide] was 20 to 50%; that for `COc1ccc(-c2cnc3cnc(-c4cccc(C(N)=O)c4)cn23)cn1` [compound 383, 3-[3-(6-methoxy-3-pyridyl)imidazo[1,2-a]pyrazin-6-yl]benzamide] was 20 to 50%; that for `COc1cccc(-c2ccc3nnc(-c4cscn4)n3c2)c1` [compound 234, 4-[6-(3-methoxyphenyl)-[1,2,4]triazolo[4,3-a]pyridin-3-yl]thiazole] was 50 to 100%. The value for `OCc1ccc(-c2cnc3cnc(-c4ccco4)cn23)cc1` [compound 373, [4-[6-(2-furyl)imidazo[1,2-a]pyrazin-3-yl]phenyl]methanol] was 20 to 50%; that for `CN(C)c1ccc(-c2cnc3cnc(-c4cccc(C(N)=O)c4)cn23)cc1` [compound 292, 3-[3-(4-dimethylaminophenyl)imidazo[1,2-a]pyrazin-6-yl]benzamide] was 20 to 50%; that for `COc1ccc(-c2cnc3ccc(NCCCO)nn23)c(OC)c1` [compound 42, 3-[[3-(2,4-dimethoxyphenyl)imidazo[1,2-b]pyridazin-6-yl]amino]propan-1-ol] was 10 to 20%. The value for `OCc1ccc(-c2cnc3ccc(-c4cncnc4)nn23)cc1` [compound 130, [4-(6-pyrimidin-5-ylimidazo[1,2-b]pyridazin-3-yl)phenyl]methanol] was 10 to 20%; that for `Oc1cccc(-c2cnc3cnc(-c4cc5ccccc5s4)cn23)c1` [compound 364, 3-[6-(benzothiophen-2-yl)imidazo[1,2-a]pyrazin-3-yl]phenol] was 50 to 100%; that for `c1cncc(-c2cnc3cnc(-c4ccc(N5CCOCC5)cc4)cn23)c1` [compound 315, 4-[4-[3-(3-pyridyl)imidazo[1,2-a]pyrazin-6-yl]phenyl]morpholine] was 20 to 50%. The compound `CN(C)c1ccc(-c2cnc3cnc(-c4ccc(C(=O)N5CCOCC5)cc4)cn23)cc1` [compound 291, [4-[3-(4-dimethylaminophenyl)imidazo[1,2-a]pyrazin-6-yl]phenyl]-morpholino-methanone] displayed an Emax of 20 to 50%.

On to `COc1cc(-c2cn3c(-c4ccc5c(ccn5C)c4)cnc3cn2)ccc1O` [compound 400, 2-methoxy-4-[3-(1-methylindol-5-yl)imidazo[1,2-a]pyrazin-6-yl]phenol], for which the Emax was 20 to 50%.

In turn, `CS(=O)(=O)Nc1cccc(-c2cn3c(-c4cccs4)cnc3cn2)c1` [compound 425, N-[3-[3-(2-thienyl)imidazo[1,2-a]pyrazin-6-yl]phenyl]methanesulfonamide] displayed an Emax of 20 to 50%. The result for `CN1CCN(C(=O)c2ccc(-c3cnc4cnc(/C=C/c5ccccc5)cn34)cc2)CC1` [compound 402, (4-methylpiperazin-1-yl)-[4-[6-[(E)-styryl]imidazo[1,2-a]pyrazin-3-yl]phenyl]methanone] reads 10 to 20%; that for `COc1ccccc1CC(=O)Nc1cnc2cnc(-c3cccc(Cl)c3Cl)cn12` [compound 250, N-[6-(2,3-dichlorophenyl)imidazo[1,2-a]pyrazin-3-yl]-2-(2-methoxyphenyl)acetamide], 20 to 50%. The result for `COc1cccc(CC(=O)Nc2cnc3cnc(-c4ccccc4CN(C)C)cn23)c1` [compound 252, N-[6-[2-(dimethylaminomethyl)phenyl]imidazo[1,2-a]pyrazin-3-yl]-2-(3-methoxyphenyl)acetamide] reads 20 to 50%; that for `OCC#Cc1ccc2nnc(-c3ccc4c(c3)OCO4)n2c1` [compound 173, 3-[3-(1,3-benzodioxol-5-yl)-[1,2,4]triazolo[4,3-a]pyridin-6-yl]prop-2-yn-1-ol], 20 to 50%; that for `CN1CCN(C(=O)c2cccc(-c3cnc4cnc(-c5ccc6c(ccn6C)c5)cn34)c2)CC1` [compound 358, [3-[6-(1-methylindol-5-yl)imidazo[1,2-a]pyrazin-3-yl]phenyl]-(4-methylpiperazin-1-yl)methanone], 20 to 50%. The value for `Nc1ccc(-c2cn3c(NC(=O)c4ccccc4)cnc3cn2)cc1` [compound 269, N-[6-(4-aminophenyl)imidazo[1,2-a]pyrazin-3-yl]benzamide] was 20 to 50%; that for `Nc1cccc(-c2cn3c(NC(=O)Cc4ccc(F)c(F)c4)cnc3cn2)c1` [compound 277, N-[6-(3-aminophenyl)imidazo[1,2-a]pyrazin-3-yl]-2-(3,4-difluorophenyl)acetamide] was 10 to 20%. `CC(C)c1cccc(-c2ccc3nnc(-c4cccnc4)n3c2)c1` [compound 183, 6-(3-isopropylphenyl)-3-(3-pyridyl)-[1,2,4]triazolo[4,3-a]pyridine] returned a maximum response (Emax) of 50 to 100%. The value for `N#Cc1ccc(-c2cnc3cnc(-c4ccc(Cl)cc4)cn23)cc1` [compound 337, 4-[6-(4-chlorophenyl)imidazo[1,2-a]pyrazin-3-yl]benzonitrile] was 50 to 100%; that for `CS(=O)(=O)Nc1cccc(-c2ccc3ncc(-c4ccncc4)n3n2)c1` [compound 105, N-[3-[3-(4-pyridyl)imidazo[1,2-b]pyridazin-6-yl]phenyl]methanesulfonamide] was 20 to 50%. The result for `CN(C)c1cccc(-c2ccc3ncc(-c4cccs4)n3n2)c1` [compound 155, N,N-dimethyl-3-[3-(2-thienyl)imidazo[1,2-b]pyridazin-6-yl]aniline] reads 20 to 50%; that for `Cc1ccccc1-c1cn2c(-c3ccc(CCC(=O)O)cc3)cnc2cn1` [compound 330, 3-[4-[6-(o-tolyl)imidazo[1,2-a]pyrazin-3-yl]phenyl]propanoic acid], 20 to 50%; that for `CC(=O)Nc1cccc(-c2ccc3nnc(-c4ccc5nccnc5c4)n3c2)c1` [compound 241, N-[3-(3-quinoxalin-6-yl-[1,2,4]triazolo[4,3-a]pyridin-6-yl)phenyl]acetamide], 50 to 100%. For `COc1cc(-c2cnc3cnc(-c4ccc(N5CCN(C)CC5)nc4)cn23)cc(OC)c1OC` [compound 340, 6-[6-(4-methylpiperazin-1-yl)-3-pyridyl]-3-(3,4,5-trimethoxyphenyl)imidazo[1,2-a]pyrazine], the Emax lay in the range of 20 to 50%.

Values taken from EP2818471A1, “Nitrogen bicyclic compounds as inhibitors for Scyl1 and Grk5” (Max-Planck-Gesellschaft zur Förderung der Wissenschaften …, priority 2013, dated 2014).
